Here are results for eleven molecules from patent publication US7266458B2, “BioMAP analysis” (Bioseek, Inc., priority 2000, dated 2007).

Data set [1] relates to human umbilical vein endothelial cells (HUVEC). Description: Optimized inflammatory assay combination (IL-1+TNF-α+IFN-γ) with added agents, cell-based ELISA biomap. To be noted: for biomap in the optimized assay combination: 10 μM NHGA, 200 YM PDTC, 9 μM PD098059, 125-500 μM ibuprofen, TNF-α+IFN-γ+IL-1, 24 hours; for reference biomaps compared by pattern similarity and cluster analysis: hierarchical clustering, FIG. 4C. As to the method:
After 24 hours, cultures are washed and evaluated for the cell surface expression of ICAM-1 (1), VCAM-1 (2), E-selectin (3), IL-8 (4), CD31 (5), HLA-DR (6) and MIG (7) by cell-based ELISA performed as described above.
Confluent cultures of HUVEC cells are treated with TNF-α (5 ng/ml)+IFN-γ (100 ng/ml)+IL-1 (1 ng/ml) in the presence or absence of agents or buffers at the concentrations indicated in Table 1. Compounds are obtained from commercial sources and prepared in a suitable buffer (water, base media, DMSO, methanol or ethanol). After 24 hours, cultures are washed and evaluated for the cell surface expression of ICAM-1 (1), VCAM-1 (2), E-selectin (3), IL-8 (4), CD31 (5), HLA-DR (6) and MIG (7) by cell-based ELISA performed as described above. A color-coded representation of the resulting biomaps developed from the data is shown. […] Control assay combinations for each agent include an appropriate concentration of the diluent buffer.
Readout patterns are analyzed by hierarchical clustering techniques, and are visualized as a tree diagram in which a) each terminal branch point represents the readout pattern from one assay combination in one experiment; b) the length of the vertical distance from the upper horizontal line (no change and control patterns) to the termini are related to the extent of difference in the readout pattern from the control environment pattern; and c) the distance along, the branches from one terminal pattern value to another reflects the extent of difference between them. Similar patterns are thus clustered together.

Data set [2] shares this test system. The data set can be described thus: Multiplex assay combinations for distinguishing mechanism of action (single cytokines, activating anti-p55). In kind it is cell-based. As to conditions: 20 μM AA861, 10 μM NHGA. As to the method: Confluent cultures of HUVEC cells are treated with TNF-α (5 ng/ml), IFN-γ (100 ng/ml), IL-1 (20 ng/ml), the combination of TNF-α+IFN-γ+IL-1, or media (no cytokine) in the presence or absence of neutralizing anti-TNF-α, 20 μM AA861 or 10 μM NHGA. After 24 hours, cultures are washed and evaluated for the cell surface expression of ICAM-1 (1), VCAM-1 (2), E-selectin (3), IL-8 (4), and MIG (5) by cell-based ELISA performed as described in Example 1. A graphical representation of the resulting biomaps derived from the data is shown in FIG. 5, coded as described above.
Confirmation is performed by evaluating the test agent in assay combinations that include both physiologic and alternative pathway activators. Confluent cultures of HUVEC cells are treated with TNF-α (5 ng/ml), IL-1 (20 ng/ml), an activating antibody against the TNF-α receptor p55, or media. After 24 hours, cultures are washed and evaluated for the cell surface expression of ICAM-1 (1), VCAM-1 (2), E-selectin (3), CD31 (4), and MIG (5) by cell-based ELISA performed as described above. A graphical representation of the resulting biomap, prepared from the data is shown in FIG. 6, coded as described above.

Data set [3] has the same test system. The data set can be described thus: Morpholino antisense in HUVEC, cell surface expression by flow cytometry. In kind it is cell-based. The source says: Morpholino phosphorodiamidate (MF) antisense oligonucleotides are used. Other chemical classes of antisense oligonucleotides that can be substituted for morpholinos include but are not limited to phosphorotioate oligonucleotides, N3′-P5′ phosphoramidate oligonucleotides (NP), locked nucleic acid (LNA), 2′-O-methoxyethyl nucleic acid (MOE), 2′-fluoro-arabinonucleic acid (FANA), peptide nucleic acids (PNA) (reviewed in Toulme, Nature Biotech. 19:17, 2001); siRNA (Elbashir et al. (2000) Nature 411:494-498); ribozymes (Kawasaki et al. (2002) Nat. Biotech 20:376-380); standard antisense (Veres et al. (1998) J. Virol. 72:1894-1901). In the present example, antisense oligonucleotides for TNF-R1 (p55) (5′-[…]-3′)(SEQ ID NO:1), and the beta-globin control oligo (5′-[…]-3′)(SEQ ID NO:2) (Gene Tools Inc.) are used. The transfection mixture is prepared by mixing […] of 200 mM EPEI (Ethoxylated PolyEthylenlmine), vortexed, incubated at room temperature for 20 minutes, and then mixed with 3.5 ml of serum-free media to give a final 0.6 μM morpholino concentration.
HUVEC cells are plated the day before in 24-well plates at 4-6×10e4 cells/well. Cells are washed once with serum-free media and incubated with 0.4 ml of the morpholino transfection mixture at 37° C. for 3 hours. Morpholino is removed, regular media ([…] Growth Media with 2% fetal calf serum, Clonetics) is added and cells allowed to recover overnight. The efficiency of loading of cells with morphino is monitored in cells incubated with a fluorescent morpholino, and is typically essentially 100 percent. HUVEC cells are then treated with either TNF-α (0.5 ng/ml), or IL-1 (1 ng/ml), or media only. After 4 hours, cells are harvested and evaluated for the cell surface expression of ICAM-1 (1), VCAM-1 (2), E-selectin (3), and CD31 (4) by flow cytometry. […] The TNF-R1 antisense specifically blocks induction of ICAM-1 and VCAM-1 by TNF-α, while it has no effect on induction of the same markers by the independent cell surface receptor for IL-1.
Background: A flow cytometer gives signals particle by particle.

For data set [4] the test system is unchanged. It counts as cell-based. More on the design: key: Active BioMap profiles (indicated as “yes”) were significantly different from the profile obtained with the control vector; BioMAP profiles that were not different from control vector are indicated as “—”. As to conditions: NFkB Pathway genes; TNF-alpha, IL-1, IFN-gamma individually or in combination; vs control vector, p < 0.05, n = 3.
Description: High-titer retrovirus preparations are generated by transient transfection of vector construct into a retroviral packaging cell line (AmphoPack-293;Clontech). […] Expression of BioMAP markers (ICAM-1, VCAM, etc.) is measured by a cell-based ELISA technique (Melrose, 1998, supra) that has been optimized such that changes in expression levels of >20% can be routinely detected as statistically significant effects (p<0.05). […] Cells were stained with the NGFr specific monoclonal antibody (Chemicon).
In the lower two panels IFN-gamma was added to all samples. Average values (ELISA OD) from triplicate samples are shown, error bars indicate standard deviation. Control is HUVEC transduced with the “empty” vector, which only encodes NGFr marker. Data are from a representative experiment. Results were reproduced in at least two experiments with HUVEC cells from different donors.
Gene over-expression vectors were generated for many members of the NFκB and Jak/STAT pathways, and measured BioMAP profiles in transduced HUVEC cells by a cell-based ELISA technique (Melrose, 1998, supra), in the presence of TNF-alpha, IL-1, IFN-gamma, individually or in combination. […] Average values (ELISA OD) from triplicate samples are shown. Control (_-_) is HUVEC transduced with the “empty” retroviral vector, which only encodes NGFr marker. Data shown are from a representative experiment.

Data set [5] shares this test system. The data set can be described thus: Apoptosis assay panel (ceramide, TNF-α) with LDH release and cell-based ELISA. As to conditions: factor added to endothelial cell cultures, vs basal conditions.
Excerpt: A panel of assay combinations that reproduces aspects of the response of the endothelial cells to inflammatory processes and stimuli enhancing apoptosis is used.
Retroviral vectors derived from the MSCV-based pMSCVneo vector (Clontech) are used to express genes in the cultured endothelial cells. […] Test genes are inserted downstream of the MSCV LTR, the marker gene is the enhanced green fluorescent protein (GFP) and the IRES is 600 bp fragment from EMCV virus (Jang, J. Virol. 63:1651, 1989). […] Retroviral vector plasmid DNA is transfected into AmphoPack-293 cells (Clontech) by modified calcium phosphate method according to manufacturer's protocol (MBS transfection kit, Stratagene). Cell supernatants are harvested 48 hours post-transfection, filtered to remove cell debris (0.45 pm) and transferred onto exponentially growing HUVEC cells. DEAE dextran (conc lopg/ml) is added to facilitate vector transduction. After a 5-8 hour incubation period viral supernatants are removed and cells cultured for an additional 40 hours. Gene transfer efficiency is determined by FACS, and is typically ≧80 percent. […] After 24 hours, transduced cells are evaluated for the surface expression ICAM-1 (1), VCAM-1 (2), and MIG (3) by cell-based ELISA for biomap analysis. For the expanded biomap, cell supernatants at 24 hours are collected and analyzed for the presence of LDH (4).
Data set [6] shares this test system. The data set can be described thus: HUVEC treated with proinflammatory cytokines, readout parameters by cell-based ELISA. As to conditions: HUVEC cultured with cytokine(s) 24 hours, vs basal medium.
Description: Primary human umbilical vein endothelial cells (HUVEC) are used. […] 2×10^4 cells/ml are cultured to confluence in EGM-2 (Clonetics).
After 24 hours, cultures are washed and evaluated for the presence of the parameters ICAM-1 (1), VCAM-1 (2), E-selectin (3), IL-8 (4), CD31 (5), HLA-DR (6) and MIG (7) by cell-based ELISA as described (Melrose, J. Immunol. 161:2457, 1998). For this, plates are blocked with 1% Blotto for 1 hr, and treated with primary antibodies (obtained from Pharmingen and Becton Dickinson) at 1 ng/ml for 2 hr. After washing, secondary peroxidase-conjugated anti-mouse IgG antibody (Promega) at 1:2500 is applied for 45 min. After washing, TMB substrate (Kierkegaard & Perry) is added and color developed. Development is stopped by addition of H2SO4 and the absorbance at 450 nm (subtracting the background absorbance at 600 nm) is read with a Molecular Dynamics plate reader. The relative expression levels of each parameter are indicated by the OD at 450 nm shown along the y-axis. The mean +/−SD from triplicate samples is shown.
After 24 hours, cultures are washed and evaluated for the presence of the parameters ICAM-1 (1), VCAM-1 (2), E-selectin (3), IL-8 (4), CD31 (5), HLA-DR (6) and MIG (7) by cell-based ELISA performed as described above, and are reported as the OD at 450 nm. The mean +/−SD from triplicate samples are shown. * indicates p<0.05 comparing results obtained with the two separate conditions.
The mark [7] stands for this setting: 0.6 μM morpholino, IL-1 1 ng/ml, 4 hours.
[8] abbreviates: 0.6 μM morpholino, TNF-α 0.5 ng/ml, 4 hours.

For `CC(C)Cc1ccc(C(C)C(=O)O)cc1` (stereo not drawn) [ibuprofen], in data set [1], the “biomap in the optimized assay combination” value is listed as “visually different representations of biomaps”.

Consider `COc1cccc(-c2cc(=O)c3ccccc3o2)c1N` [PD098059], for which, in data set [1], the “biomap in the optimized assay combination” value is recorded as “altered biomaps”; the “reference biomaps compared by pattern similarity and cluster analysis” value is “remain in the same cluster”.

In the case of `S=C(S)N1CCCC1` [PDTC, pyrrolidine dithiocarbamate], in data set [1], the “biomap in the optimized assay combination” value was “altered biomaps”; the “reference biomaps compared by pattern similarity and cluster analysis” value was “have similar reference biomaps and cluster together”.

Turning to `O=c1cc(-c2ccc(O)cc2)oc2cc(O)cc(O)c12` [apigenin], the “reference biomaps compared by pattern similarity and cluster analysis” value in data set [1] is “have similar reference biomaps and cluster together”.

For `CC(Cc1ccc(O)c(O)c1)C(C)Cc1ccc(O)c(O)c1` (stereo not drawn) [NHGA, nordihydroguaiaretic acid], the “cytokine signaling pathways targeted in the panel” value in data set [2] is reported as “target multiple cytokine signaling pathways”. Besides, in data set [1], the “biomap in the optimized assay combination” value is reported as “altered biomaps”; the “reference biomaps compared by pattern similarity and cluster analysis” value is “have similar reference biomaps and cluster together”.

Turning to `O=C(NC1=CC(=O)c2ccccc2C1=O)c1ccccc1` [PPM-18], the “reference biomaps compared by pattern similarity and cluster analysis” value in data set [1] is “have similar reference biomaps and cluster together”.

On to “TNF-R1 antisense: morpholino antisense oligonucleotide for TNF-R1 (p55), 5′-AGGTCAGGCACGGTGGAGAGGC-3′ (SEQ ID NO:1) (all phosphorodiamidate morpholino (PMO))”, for which the “biomap vs control oligo biomap upon treatment with TNF-α” value in data set [3] was “altered biomap”. In data set [3] (setting [7]), the “induction of ICAM-1 by IL-1” value is on record as “no effect” and the “induction of VCAM-1 by IL-1” value is “no effect”. In data set [3] (setting [8]), the “induction of ICAM-1 by TNF-α” value is “blocks” and the “induction of VCAM-1 by TNF-α” value is reported as “blocks”.

On to `C[C@]12C=CC(=O)C=C1CC[C@@H]1[C@@H]2[C@@H](O)C[C@@]2(C)[C@H]1CC[C@]2(O)C(=O)CO` [prednisolone], for which the “reference biomaps compared by pattern similarity and cluster analysis” value in data set [1] is on record as “related reference biomaps that are distinct from those of NFκB pathway inhibitors”.

As for TNFA, in data set [4], the BioMAP readout result was “yes”.

In the case of ceramide, the “cell damage as release of cytoplasmic lactate dehydrogenase into the supernatant” value in data set [5] was “enhanced”.

B1: IFN-γ: cytokine added to HUVEC (protein)
chain: QDPYVKEAENLKKYFNAGHSDVADNGTLFLGILKNWKEESDRKIMQSQIVSFYFKLFKNFKDDQSIQKSVETIKEDMNVKFFNSNKKKRDDFEKLTNYSVTDLNVQRKAIHELIQVMAELSPAAKTGKRKRSQMLFRGRRASQ
As for B1, the ICAM-1 level result in data set [6] (TNF-α 5 ng/ml, IFN-γ 100 ng/ml, IL-1 1 ng/ml) was “increased”. In addition, in data set [6], the HLA-DR level entry was “increased” and the MIG level entry was “increased”.
